In assay [1] the test system is cleaved lamin A/C in WM266-4 cells. In words: Western blotting for lamin A/C cleavage. The format is cell-based, human. As for the experimental part: (§1) 1×10^6 of WM266-4 or M14 cells were seeded in 3 mL of E-MEM or RPMI-1640 medium supplemented with 10% FBS and 1% penicillin/streptomycin in 6 cm plates. […] After washing with TBST, the membranes were treated with chemilumiscent horseradish peroxidase detection reagent (Thermo Scientific, Cat #32209) and exposed to autoradiography film (Denville Scientific, Inc., Metuchen, N.J., USA, cat #E3018). ImageJ software (NIH, Bethesda, Md.) was used to quantify the intensity of proteins bands. The protein bands were normalized against loading controls.

Assay [2] has as its system LC3-II and beclin-1 in WM266-4 cells. In words: Western blotting for LC3 and beclin-1, WM266-4. The format is cell-based, human. The method, then: as §1, with “controls (β-actin) and expressed as a fold of an untreated control.” for “controls.”
(In general: A western blot detects proteins with antibodies after separation by electrophoresis.)

The mark [3] stands for this setting: 50 μM inhibitor, then 100 μM 2155-14.
[4] abbreviates: cells treated with 100 μM 2155-14, inhibitor 10 μM.
Where [5] appears, read: 10 μM inhibitor 3 h, then 100 μM 2155-14, 24 h.

Peptide text beside a SMILES is read from it. * marks the point of attachment. Cbz = O=C(OCc1ccccc1)*; CH2F = FC*

For `COC(=O)C[C@H](NC(=O)[C@H](C)NC(=O)[C@@H](NC(=O)[C@H](CC(=O)OC)NC(=O)[C@@H](NC(=O)OCc1ccccc1)C(C)C)C(C)C)C(=O)CF` [caspase 2 inhibitor, Z-VDVAD-FMK, reference compound] (Cbz-VD(OMe)VAD(OMe)-CH2F), in assay [1] (setting [3]), the “lamin A/C cleavage after caspase inhibitor pre-treatment” value is listed as “to the lesser extent”.
On to `CCN(CCO)CCCC(C)Nc1ccnc2cc(Cl)ccc12` (stereo not shown) [hydroxychloroquine, reference compound], for which the “cleaved lamin A/C level after autophagy inhibitor pretreatment” value in assay [1] (setting [4]) is listed as “increased levels”. Besides, the “LC3-II level after autophagy inhibitor pretreatment” value in assay [2] (setting [4]) was “increased levels”.
Regarding `CC[C@H](C)[C@H](NC(=O)OCc1ccccc1)C(=O)N[C@@H](CCC(=O)OC)C(=O)N[C@H](C(=O)N[C@@H](CC(=O)OC)C(=O)CF)[C@@H](C)O` [caspase 8 inhibitor, Z-IETD-FMK, reference compound] (Cbz-IE(OMe)TD(OMe)-CH2F), the “lamin A/C cleavage after caspase inhibitor pre-treatment” value is “Only partial inhibition of lamin A/C cleavage” in assay [1] (setting [5]) and “almost completely abrogated” in assay [1] (setting [3]).
In the same order, the values of `COC(=O)C[C@H](NC(=O)[C@H](C)NC(=O)[C@@H](NC(=O)OCc1ccccc1)C(C)C)C(=O)CF` [pan-caspase inhibitor, Z-VAD-FMK, reference compound] (Cbz-Val-Ala-Asp(OMe)-CH2F) are “Only partial inhibition of lamin A/C cleavage” and “almost completely abrogated”.
Regarding `CN(C)c1cccc2c(S(=O)(=O)NCCCC[C@@H](CN3CCC[C@H]3CN3C(=O)C(=O)NC[C@@H]3Cc3ccccc3)N3C[C@H](Cc4ccc(O)cc4)N(CCc4ccccc4)C(=O)C3=O)cccc12` [Compound 2476-66.2, N—((S)-6-((S)-2-(((S)-6-benzyl-2,3-dioxopiperazin-1-yl)methyl)pyrrolidin-1-yl)-5-((S)-5-(4-hydroxybenzyl)-2,3-dioxo-4-phenethylpiperazin-1-yl)hexyl)-5-(dimethylamino)naphthalene-1-sulfonamide], in assay [1] (2.5 μM, 24 hr), the “lamin A/C cleavage” value is given as “no cleavage of lamin A/C”. Moreover, the “lamin A/C western blot” value in assay [1] (5 μM, 24 hr) is recorded as “striking increase of cleaved lamin A/C”. For the same compound, in assay [2] (2.5 μM, 24 hr), the “LC3-II level” value is “no cleavage of lamin A/C or increase of levels of LC3-II was detected”. In assay [2] (5 μM, 24 hr), the “LC3 western blot” value was “neither of LC3 isoforms nor actin were detected”.
On to `CC[C@H](C)[C@H](NC(=O)[C@H](CCC(=O)OC)NC(=O)[C@@H](NC(=O)OCc1ccccc1)C(C)C)C(=O)N[C@@H](CC(=O)OC)C(=O)CF` [caspase 6 inhibitor, Z-VEID-FMK, reference compound] (Cbz-VE(OMe)ID(OMe)-CH2F), for which the entries for the “lamin A/C cleavage after caspase inhibitor pre-treatment” value in assay [1] (setting [5]) and in assay [1] (setting [3]) were “Only partial inhibition of lamin A/C cleavage” and “almost completely abrogated”, respectively.

The values above are taken from US11149028B2, “Methods for treating melanoma using small molecules” (NOVA SOUTHEASTERN UNIVERSITY, priority 2016, dated 2021).
